pEC50: −log10 of the molar value. Where two headings read alike, the source gives them in different places.
Tests used:
[1] = rcm bond, 15-membered ring, Hoveyda-Grubbs II (5 mol%), DCE, 80.0 °C
[2] = from C=CCC[C@@H](C)O[C@@H](C)C(NC(=O)OC(C)(C)C)C(=O)N1C[C@H](Oc2nccc3cc(OC)ccc23)C[C@H]1C(=O)N[C@]1(C(=O)NS(=O)(=O)C2(C)CC2)C[C@H]1C=C; rcm bond; 15-membered ring; Hoveyda-Grubbs II (5 mol%); DCE; 7.2 mM; 80.0 °C; 2.0 h
[3] = system: HCV genotype 1a (H77 strain) replicon in HUH-7 cells; test: HCV replicon luciferase reporter assay, genotype 1a; assay type: cell-based; settings: Hepatitis C virus, 72 h, genotype 1a replicon, 3 days incubation, read-out: LE_1a (EC50, range)
In short: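 Stable HUH-7 line carrying luciferase-reporter genotype 1a (H77) replicon with adaptive NS3 P1496L and NS5A S2204I mutations; 3.0×10^3 cells/well in 4% FCS, 0.5% DMSO, twenty-point 3-fold titration, 3 days at 37 °C. Renilla luminescence with 7.5 μM EnduRen; EC50 by four-parameter logistic fit; CC50 by multiplexed Cell Titer-Blue.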

[4] = system: HCV genotype 1b (Con1) replicon in HUH-7 cells; test: HCV replicon luciferase reporter assay, genotype 1b; assay type: cell-based; settings: Hepatitis C virus, 72 h, genotype 1b replicon, 3 days incubation, read-out: LE_1b (EC50, range)
In short: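 Replication was read as Renilla luciferase signal, using 7.5 μM EnduRen substrate with a 2-h incubation at 37 °C. The signal came from a HUH-7 line constitutively expressing a luciferase-tagged 1b (Con1) replicon carrying S1179I.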

Structure (SMILES): CC[C@@H]1OCCC/C=C\[C@@H]2C[C@@]2(C(=O)NS(=O)(=O)C2(C)CC2)NC(=O)[C@@H]2C[C@@H](O)CN2C(=O)[C@H]1NC(=O)OC(C)(C)C
- ring closure, isolated yield ([1]; from C=CCCCO[C@@H](CC)[C@H](NC(=O)OC(C)(C)C)C(=O)N1C[C@H](O)C[C@H]1C(=O)N[C@]1(C(=O)NS(=O)(=O)C2(C)CC2)C[C@H]1C=C, 7.5 mM, 74.0 h): 22%

Structure (SMILES): CC[C@@H]1O[C@H](C)CC/C=C\[C@@H]2C[C@@]2(C(=O)NS(=O)(=O)C2(CF)CC2)NC(=O)[C@@H]2C[C@@H](O)CN2C(=O)[C@H]1NC(=O)OC(C)(C)C
- ring closure, isolated yield ([1]; from C=CCC[C@@H](C)O[C@@H](CC)[C@H](NC(=O)OC(C)(C)C)C(=O)N1C[C@H](O)C[C@H]1C(=O)N[C@]1(C(=O)NS(=O)(=O)C2(CF)CC2)C[C@H]1C=C, 9.2 mM, 16.0 h): 22%

Structure (SMILES): CC[C@@H]1O[C@H](C)CC/C=C\[C@@H]2C[C@@]2(C(=O)NS(=O)(=O)C2CC2)NC(=O)[C@@H]2C[C@@H](O)CN2C(=O)[C@H]1NC(=O)OC(C)(C)C
- ring closure, isolated yield ([1]; from C=CCC[C@@H](C)O[C@@H](CC)[C@H](NC(=O)OC(C)(C)C)C(=O)N1C[C@H](O)C[C@H]1C(=O)N[C@]1(C(=O)NS(=O)(=O)C2CC2)C[C@H]1C=C, 9.8 mM, 4.0 h): 54%

Structure (SMILES): CC[C@@H]1O[C@H](C)CCC=C[C@@H]2C[C@@]2(C(=O)NS(=O)(=O)C2(C)CC2)NC(=O)[C@@H]2C[C@@H](O)CN2C(=O)[C@H]1NC(=O)OC(C)(C)C
- ring closure, isolated yield ([1]; from C=CCC[C@@H](C)O[C@@H](CC)[C@H](NC(=O)OC(C)(C)C)C(=O)N1C[C@H](O)C[C@H]1C(=O)N[C@]1(C(=O)NS(=O)(=O)C2(C)CC2)C[C@H]1C=C, 8.7 mM, 74.0 h, 5 steps): 10%

Structure (SMILES): C[C@@H]1CC/C=C\[C@@H]2C[C@@]2(C(=O)NS(=O)(=O)C2(C)CC2)NC(=O)[C@@H]2C[C@@H](O)CN2C(=O)[C@@H](NC(=O)OC(C)(C)C)[C@H](C)O1
- ring closure, isolated yield ([1]; from C=CCC[C@@H](C)O[C@@H](C)[C@H](NC(=O)OC(C)(C)C)C(=O)N1C[C@H](O)C[C@H]1C(=O)N[C@]1(C(=O)NS(=O)(=O)C2(C)CC2)C[C@H]1C=C, 8.0 mM, 2.0 h): 24%

Structure (SMILES): COc1ccc2c(O[C@@H]3C[C@H]4C(=O)N[C@]5(C(=O)NS(=O)(=O)C6(C)CC6)C[C@H]5/C=C\CC[C@@H](C)O[C@@H](C)[C@H](NC(=O)OC(C)(C)C)C(=O)N4C3)nccc2c1 [Compound 2001, tert-butyl ((2R,6S,7S,9R,13aS,14aR,16aS,Z)-2-((6-methoxyisoquinolin-1-yl)oxy)-7,9-dimethyl-14a-(((1-methylcyclopropyl)sulfonyl)carbamoyl)-5,16-dioxo-2,3,5,6,7,9,10,11,13a,14,14a,15,16,16a-tetradecahydro-1H-cyclopropa[i]pyrrolo[1,2-e][1,5,8]oxadiazacyclopentadecin-6-yl)carbamate]
- ring closure, yield after HPLC [2]: 30%
- pEC50 [3]: 8.30 to 9.00
- pEC50 [4]: 8.30 to 9.00

Structure (SMILES): CC[C@@H]1O[C@H](C)CC/C=C\[C@@H]2C[C@@]2(C(=O)NS(=O)(=O)C2(C)CC2)NC(=O)[C@@H]2C[C@@H](Oc3ncc(OC)c4ccccc34)CN2C(=O)[C@H]1NC(=O)OC(C)(C)C(F)F [Compound 2618, 1,1-difluoro-2-methylpropan-2-yl ((2R,6S,7S,9R,13aS,14aR,16aS,Z)-7-ethyl-2-((4-methoxyisoquinolin-1-yl)oxy)-9-methyl-14a-(((1-methylcyclopropyl)sulfonyl)carbamoyl)-5,16-dioxo-2,3,5,6,7,9,10,11,13a,14,14a,15,16,16a-tetradecahydro-1H-cyclopropa[i]pyrrolo[1,2-e][1,5,8]oxadiazacyclopentadecin-6-yl)carbamate]
- pEC50 [3]: 9.30 to 10.00
- pEC50 [4]: 9.30 to 10.00

Reference: patent publication US9598433B2, “Hepatitis C virus inhibitors” (BRISTOL-MYERS SQUIBB COMPANY, priority 2012, dated 2017)
